In patent US20240132480A1, “INHIBITORS OF MYCOBACTERIUM TUBERCULOSIS LIPOAMIDE DEHYDROGENASE” (Cornell University, priority 2021, published 2024):
Read-outs that look alike come from different tables or passages of the source.

Assays:
[1] = Microsomal clearance (hLM); settings: human liver microsomes
Mtb Lpd = Mtb Lpd (Mycobacterium tuberculosis (strain ATCC 25618 / H37Rv), UniProt P9WHH9); format: biochemical
[2] = microsomes
[3] = 30 min preincubation, read-out: LPD IC50 (μM) w/ 30 min preincubation

Row | Compound | Human Liver Microsome Stability [1] | IC50 (Mtb Lpd; read-out: LPD IC50) | Human Liver Microsome Stability [2] | IC50 (Mtb Lpd; [3])
1 | COc1ccc(NC(=O)CN(C)S(=O)(=O)c2cc(C)cc3cn[nH]c23)cc1Cl [Example 1, N-(3-chloro-4-methoxyphenyl)-2-((N,5-dimethyl-1H-indazole)-7-sulfonamido)acetamide] | >768 µL/min/mg |  |  | 
2 | COc1ccc(NC(=O)[C@@H]2CCCN2S(=O)(=O)c2cc(C)cc3cn[nH]c23)cc1Cl [Example 4, (S)—N-(3-chloro-4-methoxyphenyl)-1-((5-methyl-1H-indazol-7-yl)sulfonyl)pyrrolidine-2-carboxamide] | 324 µL/min/mg | 0.39 µM |  | 
3 | CN(CC(=O)Nc1ccc2c(c1)OCCN2C1CCOCC1)S(=O)(=O)c1cc(C(F)F)cc2c(F)[nH]nc12 [Example 175, 2-((5-(difluoromethyl)-3-fluoro-N-methyl-1H-indazole)-7-sulfonamido)-N-(4-(tetrahydro-2H-pyran-4-yl)-3,4-dihydro-2H-benzo[b][1,4]oxazin-7-yl)acetamide] |  | 0.089 µM | 166 µL/min/mg | 
4 | Cc1cc(S(=O)(=O)N(C)CC(=O)Nc2ccn(C)c(=O)c2)c2n[nH]c(Cl)c2c1 [Example 176, 2-((3-chloro-N,5-dimethyl-1H-indazole)-7-sulfonamido)-N-(1-methyl-2-oxo-1,2-dihydropyridin-4-yl)acetamide] |  | 0.252 µM | 34 µL/min/mg | 
5 | COc1ccc(NC(=O)CN(C)S(=O)(=O)c2cc(C)cc3c(C)n[nH]c23)cc1C [Example 9] |  | 0.0273 µM | >768 µL/min/mg | 
6 | Cc1cc(S(=O)(=O)N(C)CC(=O)Nc2cccc(N3CCCCC3=O)c2)c2[nH]c(C#N)cc2c1 [Example 219] |  |  | 150 µL/min/mg | 0.03 µM
7 | CC#CC(C)(C)NC(=O)CN(C)S(=O)(=O)c1cc(C)cc2cc(C#N)[nH]c12 [Example 229] |  |  | 160 µL/min/mg | 0.031 µM
8 | O=C(Nc1ccc2c(c1)OCCN2C1COC1)[C@@H]1CCN1S(=O)(=O)c1cc(C(F)F)cc2c(F)n[nH]c12 [Example 184, (S)-1-((5-(difluoromethyl)-3-fluoro-1H-indazol-7-yl)sulfonyl)-N-(4-(oxetan-3-yl)-3,4-dihydro-2H-benzo[b][1,4]oxazin-7-yl)azetidine-2-carboxamide] |  | 0.148 µM | 36 µL/min/mg | 
9 | Cc1cc(S(=O)(=O)N(C)CC(=O)Nc2ccc(N3CCOCC3)c(C)c2)c2[nH]ncc2c1 [Example 32] |  | 0.0043 µM | 234 µL/min/mg | 
10 | Cc1cc(S(=O)(=O)N(C)CC(=O)Nc2ccc3c(c2)OCCN3C)c2[nH]ncc2c1 [Example 30, 2-((N,5-dimethyl-1H-indazole)-7-sulfonamido)-N-(4-methyl-3,4-dihydro-2H-benzo[b][1,4]oxazin-7-yl)acetamide] |  | 0.00363 µM | 78 µL/min/mg | 
11 | Cc1cc(S(=O)(=O)N2CC[C@H]2C(=O)Nc2ccc(OCCN(C)C)c(Cl)c2)c2[nH]ncc2c1 [Example 199] |  | 0.186 µM | -7 µL/min/mg | 0.045 µM
12 | Cc1cc(S(=O)(=O)N2CC[C@H]2C(=O)Nc2ccc3cnccc3c2)c2[nH]ncc2c1 [Example 85] |  | 0.023 µM | 93 µL/min/mg | 
13 | Cc1cc(S(=O)(=O)N(C)CC(=O)Nc2nc3ccccc3o2)c2n[nH]cc2c1 [Example 76] |  | 0.0994 µM | 274 µL/min/mg | 
14 | CN(CC(=O)Nc1ccc2c(c1)OCCN2C1COC1)S(=O)(=O)c1cc(C2(O)CC2)cc2cn[nH]c12 [Example 173] |  | 0.406 µM | 60 µL/min/mg | 
15 | CC#CCNC(=O)[C@@H]1CCN1S(=O)(=O)c1cc(C)cc2cn[nH]c12 [Example 200] |  | 0.379 µM | 13 µL/min/mg | 
16 | Cc1cc(S(=O)(=O)N2CC[C@H]2C(=O)Nc2ccc(N3CCOCC3)c(Cl)c2)c2[nH]c(C#N)cc2c1 [Example 195] |  | 0.111 µM | 64 µL/min/mg | 

Row | Compound | Human Liver Microsome Stability [1] | IC50 (Mtb Lpd; read-out: LPD IC50) | Human Liver Microsome Stability [2] | IC50 (Mtb Lpd; [3])
17 | Cc1cc(S(=O)(=O)N(C)CC(=O)Nc2ccc(C3CCN(C4COC4)CC3)c(Cl)c2)c2[nH]ncc2c1 [Example 193, N-(3-chloro-4-(1-(oxetan-3-yl)piperidin-4-yl)phenyl)-2-((N,5-dimethyl-1H-indazole)-7-sulfonamido)acetamide] |  | 0.053 µM | 73 µL/min/mg | 
18 | O=C(Nc1ccc(N2CCOCC2)c(Cl)c1)[C@@H]1CCN1S(=O)(=O)c1cc(C(F)F)cc2cn[nH]c12 [Example 190, (S)—N-(3-chloro-4-morpholinophenyl)-1-((5-(difluoromethyl)-1H-indazol-7-yl)sulfonyl)azetidine-2-carboxamide] |  | 0.111 µM | 86 µL/min/mg | 
19 | COc1ccc(NC(=O)[C@@H]2CCN2S(=O)(=O)c2cc(C)cc3cn[nH]c23)cc1Cl [Example 74] |  | 0.0488 µM | 325 µL/min/mg | 
20 | Cc1cc(S(=O)(=O)N2CCC[C@H]2C(=O)Nc2ccc(N3CCOCC3)c(Cl)c2)c2[nH]ncc2c1 [Example 5] | 133 µL/min/mg | 0.042 µM |  | 
21 | Cc1cc(S(=O)(=O)N(C)CC(=O)Nc2ccn(C3CCOCC3)c(=O)c2)c2[nH]ncc2c1 [Example 100] |  | 0.05 µM | 6 µL/min/mg | 
22 | Cc1cc(S(=O)(=O)N(C)CC(=O)Nc2ccn(C3COC3)c(=O)c2)c2[nH]ncc2c1 [Example 99] |  | 0.056 µM | 17 µL/min/mg | 
23 | Cn1ccc(NC(=O)[C@@H]2CCN2S(=O)(=O)c2cc(Br)cc3c(F)n[nH]c23)cc1=O [Example 151, (S)-1-((5-bromo-3-fluoro-1H-indazol-7-yl)sulfonyl)-N-(1-methyl-2-oxo-1,2-dihydropyridin-4-yl)azetidine-2-carboxamide] |  | 0.18 µM | -4 µL/min/mg | 
24 | Cc1cc(S(=O)(=O)N2CC[C@H]2C(=O)Nc2ccc3c(c2)OCCN3C(C)(C)CO)c2[nH]ncc2c1 [Example 147] |  | 0.037 µM | 212 µL/min/mg | 
25 | Cc1cc(S(=O)(=O)N(C)CC(=O)Nc2ccc3c(c2)OCCN3C2COC2)c2n[nH]c(F)c2c1 [Example 140] |  | 0.0278 µM | 66 µL/min/mg | 
26 | Cn1ccc(NC(=O)[C@@H]2CCN2S(=O)(=O)c2cc(Cl)cc3cn[nH]c23)cc1=O [Example 149] |  | 0.061 µM | 14 µL/min/mg | 
27 | Cc1cc(S(=O)(=O)N(C)CC(=O)NCC#Cc2ccccc2)c2[nH]c(C#N)cc2c1 [Example 218] |  |  | 191 µL/min/mg | 0.03 µM
28 | Cc1cc(S(=O)(=O)N(C)CC(=O)Nc2ccc(C3CCN(C)CC3)c(Cl)c2)c2[nH]ncc2c1 [Example 194] |  | 0.073 µM | 35 µL/min/mg | 
29 | Cc1cc(S(=O)(=O)N(C)CC(=O)Nc2ccc3c(c2)OCCN3C(C)(C)CO)c2[nH]ncc2c1 [Example 105] |  | 0.027 µM | 56 µL/min/mg | 
30 | CN(CC(=O)Nc1ccn(C)c(=O)c1)S(=O)(=O)c1cc(Cl)cc2cc(C#N)[nH]c12 [Example 225] |  |  | 11 µL/min/mg | 0.035 µM
31 | CCc1ccc(NC(=O)CN(C)S(=O)(=O)c2cc(C)cc3cc[nH]c23)cc1C [Example 21] |  | 0.136 µM | 328 µL/min/mg | 
